Test results from patent US20230278972A1, “SUBSTITUTED HALOALKYL SULFONANILIDE HERBICIDES” (FMC Corporation, priority 2020, published 2023).

Legend:
Format in all cases: in vivo
[1] = system: barnyardgrass (Echinochloa crus-galli); test: Test A preemergence, barnyardgrass; details: Preemergence; for Plant response rating, Barnyardgrass: 31 g ai/ha, visual injury, 0 to 100 scale (0 no effect, 100 complete control), approx. 10 days; for Barnyardgrass plant response rating: 125 g ai/ha, visual injury on 0 to 100 scale (0 no effect, 100 complete control), approximately 10 days
Outline: (§1)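 Test chemicals, formulated in a non-phytotoxic solvent mixture with surfactant, were sprayed postemergence on plants 2 to 10 cm tall at the one- to two-leaf stage. Preemergence treatment was a directed soil spray onto freshly seeded pots. Both used a loam soil and sand blend.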

kochia (Bassia scoparia) [2] = test: Test A preemergence, kochia; details: Preemergence; for Plant response rating, Kochia: 31 g ai/ha, visual injury, 0 to 100 scale (0 no effect, 100 complete control), approx. 10 days; for Kochia plant response rating: 125 g ai/ha, visual injury on 0 to 100 scale (0 no effect, 100 complete control), approximately 10 days
Outline: as §1

[3] = system: ragweed (common ragweed, Ambrosia artemisiifolia); test: Test A preemergence, ragweed; details: Preemergence; for Plant response rating, Ragweed: 31 g ai/ha, visual injury, 0 to 100 scale (0 no effect, 100 complete control), approx. 10 days; for Ragweed plant response rating: 125 g ai/ha, visual injury on 0 to 100 scale (0 no effect, 100 complete control), approximately 10 days
Outline: as §1

[4] = system: Ryegrass, Italian (Italian ryegrass, Lolium multiflorum); test: Test A preemergence, Ryegrass, Italian; details: Preemergence; for Plant response rating, Ryegrass, Italian: 31 g ai/ha, visual injury, 0 to 100 scale (0 no effect, 100 complete control), approx. 10 days; for Ryegrass, Italian plant response rating: 125 g ai/ha, visual injury on 0 to 100 scale (0 no effect, 100 complete control), approximately 10 days
Outline: as §1

[5] = system: Foxtail, Giant (giant foxtail, Setaria faberi); test: Test A preemergence, Foxtail, Giant; details: Preemergence; for Plant response rating, Foxtail, Giant: 31 g ai/ha, visual injury, 0 to 100 scale (0 no effect, 100 complete control), approx. 10 days; for Foxtail, Giant plant response rating: 125 g ai/ha, visual injury on 0 to 100 scale (0 no effect, 100 complete control), approximately 10 days
Outline: as §1

[6] = system: pigweed (Amaranthus retroflexus); test: Test A preemergence, pigweed; details: for Plant response rating, Pigweed: 31 g ai/ha, visual injury, 0 to 100 scale (0 no effect, 100 complete control), approx. 10 days; for Pigweed plant response rating: 125 g ai/ha, visual injury on 0 to 100 scale (0 no effect, 100 complete control), approximately 10 days
Outline: (§2)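 Directed soil spray at planting gave the preemergence treatment, while foliar application to one- to two-leaf seedlings (2–10 cm) gave the postemergence one; pots held a loam and sand mixture and chemicals were carried in a non-phytotoxic solvent with surfactant.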

[7] = system: barnyardgrass (Echinochloa crus-galli); test: Test A postemergence, barnyardgrass; details: Postemergence, 0 to 100 scale (0 no effect, 100 complete control)
Outline: as §2

kochia (Bassia scoparia) [8] = test: Test A postemergence, kochia; details: Postemergence
Outline: as §1

[9] = system: ragweed (common ragweed, Ambrosia artemisiifolia); test: Test A postemergence, ragweed; details: Postemergence
Outline: as §1

[10] = system: Ryegrass, Italian (Italian ryegrass, Lolium multiflorum); test: Test A postemergence, Ryegrass, Italian; details: Postemergence
Outline: as §1

[11] = system: Foxtail, Giant (giant foxtail, Setaria faberi); test: Test A postemergence, Foxtail, Giant; details: Postemergence
Outline: as §1

[12] = system: pigweed (Amaranthus retroflexus); test: Test A postemergence, pigweed; details: Postemergence
Outline: as §1

[13] = system: wheat (Triticum aestivum); test: Test A postemergence, wheat; details: Postemergence
Outline: as §2

corn (Zea mays) = test: Test A postemergence, corn; details: Postemergence
Outline: as §1

[14] = system: blackgrass (Alopecurus myosuroides); test: Test A postemergence, blackgrass; details: Postemergence, 0 to 100 scale (0 no effect, 100 complete control)
Outline: as §1

[15] = system: galium (catchweed bedstraw, Galium aparine); test: Test A postemergence, galium; details: Postemergence
Outline: as §2

[16] = 125 g ai/ha, visual injury approx. 10 days
[17] = 31 g ai/ha, visual injury on 0 to 100 scale (0 no effect, 100 complete control), approx. 10 days
[18] = 125 g ai/ha, visual injury approx. 10 days, 0 to 100 scale (0 no effect, 100 complete control)
[19] = 125 g ai/ha, 0 to 100 scale (0 no effect, 100 complete control)

Compound | Plant response rating, Barnyardgrass [1] | Barnyardgrass plant response rating [1] | Plant response rating, Kochia (kochia (Bassia scoparia) [2]) | Kochia plant response rating (kochia (Bassia scoparia) [2]) | Plant response rating, Ragweed [3] | Ragweed plant response rating [3] | Plant response rating, Ryegrass, Italian [4] | Ryegrass, Italian plant response rating [4] | Plant response rating, Foxtail, Giant [5] | Foxtail, Giant plant response rating [5] | Plant response rating, Pigweed [6] | Pigweed plant response rating [6] | Plant response rating, Barnyardgrass ([7]; 31 g ai/ha) | Plant response rating, Kochia (kochia (Bassia scoparia) [8]; [17]) | Plant response rating, Ragweed [9, 17] | Plant response rating, Ragweed [9, 19] | Plant response rating, Ryegrass, Italian [10, 17] | Plant response rating, Ryegrass, Italian [10, 19] | Plant response rating, Foxtail, Giant [11, 17] | Plant response rating, Pigweed [12, 17] | further results
CCCCC(=O)OCN(c1cc(C2=NOC3(CCCC3)C2)c(C)cc1C)S(=O)(=O)C(F)(F)F [Compound 143] | 80 | 90 | 0 | 20 | 0 | 0 | 90 | 90 | 50 | 100 | 60 | 100 | 0 | 10 | 0 | 10 | 0 | 20 | 0 | 20 | Plant response rating, Barnyardgrass [7, 16]: 50; Plant response rating, Kochia (kochia (Bassia scoparia) [8]; [18]): 20; Plant response rating, Foxtail, Giant [11, 18]: 30; Plant response rating, Pigweed [12, 19]: 40; Plant response rating, Wheat [13, 17]: 20; Plant response rating, Wheat [13, 19]: 50; Plant response rating, Corn (corn (Zea mays); [17]): 0; Plant response rating, Corn (corn (Zea mays); [18]): 20; Plant response rating, Blackgrass ([14]; 31 g ai/ha): 60; Plant response rating, Blackgrass [14, 16]: 0; Plant response rating, Galium [15, 17]: 50; Plant response rating, Galium [15, 18]: 40
CCC(=O)OCN(c1cc(C2=NOC3(CCCC3)C2)c(C)cc1C)S(=O)(=O)C(F)(F)F [Compound 144] | 20 | 100 | 0 | 30 | 0 | 30 | 70 | 90 | 90 | 100 | 70 | 50 | 0 | 10 | 0 | 30 | 0 | 0 | 0 | 20 | Plant response rating, Barnyardgrass [7, 16]: 20; Plant response rating, Kochia (kochia (Bassia scoparia) [8]; [18]): 10; Plant response rating, Foxtail, Giant [11, 18]: 30; Plant response rating, Pigweed [12, 19]: 40; Plant response rating, Wheat [13, 17]: 0; Plant response rating, Wheat [13, 19]: 60; Plant response rating, Corn (corn (Zea mays); [17]): 0; Plant response rating, Corn (corn (Zea mays); [18]): 30; Plant response rating, Blackgrass ([14]; 31 g ai/ha): 0; Plant response rating, Blackgrass [14, 16]: 0; Plant response rating, Galium [15, 17]: 30; Plant response rating, Galium [15, 18]: 60
Cc1cc(C)c(N(COC(=O)C2CCCCC2)S(=O)(=O)C(F)(F)F)cc1C1=NOC2(CCCC2)C1 [Compound 148] | 20 | 80 | 20 | 30 | 0 | 20 | 30 | 100 | 40 | 100 | 30 | 100 | 0 | 0 | 0 | 0 | 0 | 0 | 0 | 40 | Plant response rating, Barnyardgrass ([7]; 125 g ai/ha): 10; Plant response rating, Kochia (kochia (Bassia scoparia) [8]; [19]): 20; Plant response rating, Foxtail, Giant [11, 19]: 0; Plant response rating, Pigweed [12, 19]: 40; Plant response rating, Wheat [13, 17]: 0; Plant response rating, Wheat [13, 19]: 0; Plant response rating, Corn (corn (Zea mays); [17]): 0; Plant response rating, Corn (corn (Zea mays); [19]): 0; Plant response rating, Blackgrass ([14]; 31 g ai/ha): 0; Plant response rating, Blackgrass ([14]; 125 g ai/ha): 0; Plant response rating, Galium [15, 17]: 0; Plant response rating, Galium [15, 19]: 20
Cc1cc(C)c(N(COC(=O)c2ccccc2)S(=O)(=O)C(F)(F)F)cc1C1=NOC2(CCCC2)C1 [Compound 149] | 0 | 0 | 0 | 0 | 0 | 0 | 50 | 50 | 30 | 80 | 30 | 70 | 10 | 0 | 0 | 20 | 0 | 0 | 0 | 0 | Plant response rating, Barnyardgrass ([7]; 125 g ai/ha): 40; Plant response rating, Kochia (kochia (Bassia scoparia) [8]; [19]): 10; Plant response rating, Foxtail, Giant [11, 19]: 30; Plant response rating, Pigweed [12, 19]: 40; Plant response rating, Wheat [13, 17]: 0; Plant response rating, Wheat [13, 19]: 0; Plant response rating, Corn (corn (Zea mays); [17]): 0; Plant response rating, Corn (corn (Zea mays); [19]): 0; Plant response rating, Blackgrass ([14]; 31 g ai/ha): 0; Plant response rating, Blackgrass ([14]; 125 g ai/ha): 20; Plant response rating, Galium [15, 17]: 0; Plant response rating, Galium [15, 19]: 60
Cc1cc(C)c(N(COC(=O)C2CCCC2)S(=O)(=O)C(F)(F)F)cc1C1=NOC2(CCCC2)C1 [Compound 150] | 0 | 90 | 0 | 0 | 0 | 0 | 40 | 90 | 20 | 100 | 40 | 100 | 0 | 10 | 0 | 0 | 0 | 0 | 0 | 20 | Plant response rating, Barnyardgrass ([7]; 125 g ai/ha): 50; Plant response rating, Kochia (kochia (Bassia scoparia) [8]; [19]): 10; Plant response rating, Foxtail, Giant [11, 19]: 20; Plant response rating, Pigweed [12, 19]: 40; Plant response rating, Wheat [13, 17]: 0; Plant response rating, Wheat [13, 19]: 60; Plant response rating, Corn (corn (Zea mays); [17]): 0; Plant response rating, Corn (corn (Zea mays); [19]): 0; Plant response rating, Blackgrass ([14]; 31 g ai/ha): 0; Plant response rating, Blackgrass ([14]; 125 g ai/ha): 0; Plant response rating, Galium [15, 17]: 40; Plant response rating, Galium [15, 19]: 60
